ChEMBL document CHEMBL4680201, “Design, synthesis, and pharmacological evaluation of 4- or 6-phenyl-pyrimidine derivatives as novel and selective Janus kinase 3 inhibitors” (Eur J Med Chem, 2020)
The source made the active and inactive calls. No cut-off for these calls is given here.

Legend:
[1] = target: T1, Tyrosine-protein kinase JAK3 (Mus musculus) (UniProt Q62137); experiment: Inhibition of JAK3 in anti-CD3/-CD28 coated mouse T cells assessed as reduction in IL2-induced STAT5 phosphorylation preincubated for 1 hr followed by IL2 stimulation and measured after 30 mins by Western blot analysis; settings: T cell
T1 sequence (whole entry): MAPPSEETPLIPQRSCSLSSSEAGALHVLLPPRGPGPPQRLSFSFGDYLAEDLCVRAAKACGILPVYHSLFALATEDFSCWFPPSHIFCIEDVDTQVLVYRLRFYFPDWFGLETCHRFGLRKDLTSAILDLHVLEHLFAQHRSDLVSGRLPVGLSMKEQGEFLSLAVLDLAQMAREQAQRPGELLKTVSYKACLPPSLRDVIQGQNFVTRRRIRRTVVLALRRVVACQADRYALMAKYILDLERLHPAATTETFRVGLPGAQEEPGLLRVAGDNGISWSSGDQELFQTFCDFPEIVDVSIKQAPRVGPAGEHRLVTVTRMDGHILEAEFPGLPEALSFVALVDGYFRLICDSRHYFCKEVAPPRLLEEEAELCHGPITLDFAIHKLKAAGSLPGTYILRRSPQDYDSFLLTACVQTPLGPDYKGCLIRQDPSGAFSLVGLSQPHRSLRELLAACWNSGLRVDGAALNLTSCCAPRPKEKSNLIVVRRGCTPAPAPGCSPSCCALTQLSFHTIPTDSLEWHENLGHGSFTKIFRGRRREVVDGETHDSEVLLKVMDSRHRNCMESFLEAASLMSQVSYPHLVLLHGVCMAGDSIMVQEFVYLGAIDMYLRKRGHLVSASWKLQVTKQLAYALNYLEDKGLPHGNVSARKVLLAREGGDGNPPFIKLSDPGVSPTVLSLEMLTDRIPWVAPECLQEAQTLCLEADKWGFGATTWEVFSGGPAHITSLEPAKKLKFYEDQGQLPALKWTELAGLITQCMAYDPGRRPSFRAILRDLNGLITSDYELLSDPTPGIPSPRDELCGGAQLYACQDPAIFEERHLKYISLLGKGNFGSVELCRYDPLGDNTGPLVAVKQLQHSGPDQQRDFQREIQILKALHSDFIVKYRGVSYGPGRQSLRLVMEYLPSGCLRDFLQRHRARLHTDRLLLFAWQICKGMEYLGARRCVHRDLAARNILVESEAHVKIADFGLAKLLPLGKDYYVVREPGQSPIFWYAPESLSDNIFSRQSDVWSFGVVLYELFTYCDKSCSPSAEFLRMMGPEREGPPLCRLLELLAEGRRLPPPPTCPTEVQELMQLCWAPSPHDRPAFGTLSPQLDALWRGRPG

[2] = MRT (0 to infinity) in ICR mouse at 30 mg/kg, po administered as single dose via gavage by LC-MS/MS analysis; type: ADME, organism-based; settings: in vivo
[3] = Plasma clearance in ICR mouse at 30 mg/kg, po administered as single dose via gavage by LC-MS/MS analysis; type: ADME, organism-based; settings: in vivo
Mus musculus [4] = experiment: Immunosuppressive activity in Balb/c mouse model of oxazolone-induced delayed type hypersensitivity assessed as appearance of well structured tissue architecture at 30 mg/kg, po measured after 7 days by H and E staining based histopathological analysis; type: functional, organism-based; settings: time 7.0 day
[5] = target: EGFR (Epidermal growth factor receptor) (Homo sapiens, UniProt P00533); experiment: Inhibition of recombinant human GST-tagged EGFR (668 to 1210 residues) expressed in baculovirus expression system at 100 nM using Tyr04 peptide as substrate incubated for 1 hr by Z'lyte assay relative to control; settings: probe Tyr04 peptide
EGFR (Epidermal growth factor receptor), sequence (P00533 whole entry, the tested form may be a part): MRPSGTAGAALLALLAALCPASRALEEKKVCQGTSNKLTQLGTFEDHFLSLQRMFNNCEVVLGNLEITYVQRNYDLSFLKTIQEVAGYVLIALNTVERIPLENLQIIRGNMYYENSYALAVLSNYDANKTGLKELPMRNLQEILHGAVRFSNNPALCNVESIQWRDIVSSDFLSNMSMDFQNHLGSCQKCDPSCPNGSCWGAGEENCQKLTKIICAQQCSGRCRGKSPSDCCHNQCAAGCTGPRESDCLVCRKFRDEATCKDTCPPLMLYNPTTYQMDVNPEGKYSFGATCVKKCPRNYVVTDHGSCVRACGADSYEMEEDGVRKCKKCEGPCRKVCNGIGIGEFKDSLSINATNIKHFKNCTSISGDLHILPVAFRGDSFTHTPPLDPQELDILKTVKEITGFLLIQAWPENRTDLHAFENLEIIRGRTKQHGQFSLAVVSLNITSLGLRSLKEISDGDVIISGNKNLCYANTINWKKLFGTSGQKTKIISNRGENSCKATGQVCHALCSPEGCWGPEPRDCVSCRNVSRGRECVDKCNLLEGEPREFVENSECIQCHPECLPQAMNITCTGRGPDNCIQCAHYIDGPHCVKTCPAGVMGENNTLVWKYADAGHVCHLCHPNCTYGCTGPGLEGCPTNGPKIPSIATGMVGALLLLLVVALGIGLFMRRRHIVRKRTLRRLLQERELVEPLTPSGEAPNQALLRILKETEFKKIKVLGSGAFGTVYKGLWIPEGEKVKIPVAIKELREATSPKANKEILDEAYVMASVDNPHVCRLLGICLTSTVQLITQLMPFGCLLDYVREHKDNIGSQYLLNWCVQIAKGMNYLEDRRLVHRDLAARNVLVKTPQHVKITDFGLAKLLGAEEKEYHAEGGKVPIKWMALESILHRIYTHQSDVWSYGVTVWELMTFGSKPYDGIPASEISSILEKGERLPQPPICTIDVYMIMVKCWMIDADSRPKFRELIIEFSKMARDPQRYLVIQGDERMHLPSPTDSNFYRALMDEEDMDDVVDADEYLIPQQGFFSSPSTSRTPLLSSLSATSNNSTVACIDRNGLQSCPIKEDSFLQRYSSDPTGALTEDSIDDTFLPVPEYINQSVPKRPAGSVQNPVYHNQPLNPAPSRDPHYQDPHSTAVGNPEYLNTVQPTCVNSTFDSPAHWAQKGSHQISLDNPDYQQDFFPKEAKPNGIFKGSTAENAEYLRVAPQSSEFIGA

[6] = target: T2, ITK (Tyrosine-protein kinase ITK/TSK) (Homo sapiens, UniProt Q08881); experiment: Inhibition of recombinant human GST-tagged full length ITK expressed in baculovirus expression system at 100 nM using Tyr01 peptide as substrate incubated for 1 hr by Z'lyte assay relative to control; settings: probe Tyr01 peptide
T2 sequence (Q08881 whole entry): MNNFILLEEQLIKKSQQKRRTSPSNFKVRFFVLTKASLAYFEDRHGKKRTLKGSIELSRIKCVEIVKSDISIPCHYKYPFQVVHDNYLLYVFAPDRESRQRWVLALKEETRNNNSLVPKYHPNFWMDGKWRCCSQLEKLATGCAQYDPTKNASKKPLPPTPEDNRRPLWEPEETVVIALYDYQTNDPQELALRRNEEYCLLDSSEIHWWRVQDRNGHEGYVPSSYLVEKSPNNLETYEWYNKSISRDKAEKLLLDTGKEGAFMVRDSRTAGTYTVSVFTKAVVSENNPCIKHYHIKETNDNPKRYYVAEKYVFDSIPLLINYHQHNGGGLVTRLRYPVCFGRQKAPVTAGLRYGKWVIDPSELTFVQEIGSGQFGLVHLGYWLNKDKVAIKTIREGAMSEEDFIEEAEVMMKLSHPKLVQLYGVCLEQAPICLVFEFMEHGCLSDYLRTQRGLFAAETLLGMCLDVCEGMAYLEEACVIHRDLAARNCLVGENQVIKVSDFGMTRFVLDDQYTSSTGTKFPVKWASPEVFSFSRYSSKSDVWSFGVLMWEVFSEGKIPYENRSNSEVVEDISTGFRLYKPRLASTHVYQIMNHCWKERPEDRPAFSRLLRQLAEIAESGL

[7] = target: BLK (Tyrosine-protein kinase Blk) (Homo sapiens, UniProt P51451); experiment: Inhibition of recombinant human His-tagged full length BLK expressed in baculovirus expression system at 100 nM using Tyr01 peptide as substrate incubated for 1 hr in presence of ATP by Z'-LYTE assay relative to control; settings: probe Tyr01 peptide
BLK (Tyrosine-protein kinase Blk), sequence (P51451 whole entry): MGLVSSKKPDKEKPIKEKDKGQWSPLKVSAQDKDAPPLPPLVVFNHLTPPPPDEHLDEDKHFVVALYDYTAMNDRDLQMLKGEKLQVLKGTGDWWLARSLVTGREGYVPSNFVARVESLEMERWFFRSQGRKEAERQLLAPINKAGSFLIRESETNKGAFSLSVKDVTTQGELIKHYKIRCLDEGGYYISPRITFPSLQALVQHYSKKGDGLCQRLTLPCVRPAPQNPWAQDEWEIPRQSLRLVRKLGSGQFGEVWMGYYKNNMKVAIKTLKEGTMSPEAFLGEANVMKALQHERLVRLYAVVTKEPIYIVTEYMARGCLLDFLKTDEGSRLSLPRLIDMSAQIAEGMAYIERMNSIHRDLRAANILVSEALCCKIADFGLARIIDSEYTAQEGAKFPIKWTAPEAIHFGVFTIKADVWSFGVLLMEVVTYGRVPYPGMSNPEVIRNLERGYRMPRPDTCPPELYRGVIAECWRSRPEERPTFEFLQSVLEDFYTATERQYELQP

Mus musculus [8] = experiment: Immunosuppressive activity in po dosed Balb/c mouse model of oxazolone-induced delayed type hypersensitivity assessed as reduction in ear swelling measured after 7 days; type: functional, organism-based; settings: time 7.0 day
[9] = MRT (0 to t) in ICR mouse at 10 mg/kg, iv administered as single dose by LC-MS/MS analysis; type: ADME, organism-based; settings: in vivo
[10] = AUC (0 to t) in ICR mouse at 30 mg/kg, po administered as single dose via gavage by LC-MS/MS analysis; type: ADME, organism-based; set-up: dose 30 mg/kg; settings: in vivo
[11] = AUC (0 to infinity) in ICR mouse at 10 mg/kg, iv administered as single dose by LC-MS/MS analysis; type: ADME, organism-based; set-up: route intravenous, time infinity, dose 10 mg/kg; settings: in vivo

SMILES: C=CC(=O)Nc1ccc(-c2ccnc(Nc3ccc(N4CCOCC4)cc3)n2)cc1
- inhibition [1]: Dose-dependent effect
- MRT inf [2]: 1.42 h
- CLz/F [3]: 1619 mL/min/kg
- Activity (Mus musculus [4]): Active
- inhibition at 1 h, 0.1 µM [5]: 1.2%
- inhibition at 1 h, 0.1 µM [6]: 2.3%
- inhibition at 1 h, 0.1 µM [7]: 20.6%
- Activity (Mus musculus [8]): Dose-dependent effect
- MRT last [9]: 0.73 h
- AUC(0-t) [10]: 889 ng·h/mL
- AUC(0-inf) [11]: 1270 ng·h/mL
